Assays:
[1] = tested on: mitochondria of human Th9 CAR T cells; experiment: MitoTracker of human Th9 CAR T cells (S9G); assay type: cell-based; details: for mitochondrial mass using Mito Tracker in human Th9 CAR-T cells: flow cytometry, Supplemental Figure 9G
Description: Mitochondrial mass and membrane potential were assessed using MitoTracker™ Deep Red FM (Thermo Fisher Scientific, catalog M22426) and TMRM (tetramethylrhodamine methyl ester; Macklin, catalog T868125), respectively, following the manufacturers’ protocols. Cells were incubated with the respective dyes, washed, and subjected to flow cytometry or fluorescence microscopy analysis. For ultrastructural assessment, mitochondrial number and diameter were quantified from high-resolution transmission electron microscopy (TEM) images using ImageJ software. […]
(C) Flow-cytometric analysis of infection efficiency in Th9 cells transduced with a
CD19-directed CAR lentivirus. […]
(G) Flow-cytometric analysis of mitochondrial mass using Mito Tracker in human
Th9 CAR-T c e l l s (n = 3). […]
(H) and quantification (I) (n = 5 mice per group). Statistical analysis was performed
using one-way ANOVA with Tukey’s post hoc test (A and B), or two-tailed unpaired
Student’s t-test (E–G, and I). Repeated data are presented as mean ± SEM. *p < 0.05,
(also on this page, place not known: TP cells ANOV A 30IL-9+ cells (%) Fato Fato Fato Fato A SSC GzmB CtrlEpA MFIofMitoTracker (×102) GF NormalizedATPlevel CtrlEpA 4MFI of Mito Tracker (×105) CtrlEpA0 GzmB+ cells (%) CD4 10 20 IL-9+ cells (%) Day60 10 20 30 Ctrl)

[2] = tested on: IL9, IRF4, and SPI1 mRNA; experiment: Quantitative PCR of IL9, IRF4 and SPI1 in human Th9 cells (Figure 8C); assay type: cell-based; details: result in words
Description: For Th9 polarization, cultures were supplemented with IL-4 (10 ng/mL, PeproTech, catalog AF-200-04), TGF-β (1 ng/mL), and neutralizing anti–IFN-γ monoclonal antibody (10 μg/mL, clone B27, BioXcell, catalog BE0245). After 3 days of initial culture, cells were either collected for downstream assays or continued in extended culture with refreshed cytokines to maintain lineage commitment without antibodies. Th9 cells were collected at days 4, 5, and 6 for subsequent in vitro assays. For adoptive transfer studies, day 4–cultured Th9 cells were washed and prepared for intravenous injection.
Total RNA was extracted from T cells using RNAex Pro Reagent (AG, catalog AG21102) following the manufacturer’s instructions. First-strand complementary DNA (cDNA) was synthesized using the Hifair III 1st Strand cDNA Synthesis SuperMix (YEASEN, catalog 11137ES10). Quantitative real-time PCR (qRT-PCR) was conducted on a QuantStudio 3 Real-Time PCR System (Thermo Fisher Scientific) using ChamQ Universal SYBR qPCR Master Mix (Vazyme, catalog Q711-02) and gene-specific primers (Tsingke Biotech).
For normalization, mouse samples were referenced to Gapdh or Actb, and human samples were normalized to GAPDH. Relative gene expression was calculated using the ΔΔCt method. Primer sequences are listed in Supplemental Table 5.

[3] = tested on: PD-1 on T cells; experiment: PD-1 expression on donor Th9 and endogenous CD8+/CD4+ T cells from spleens (S4J-L); assay type: in vivo, mouse; details: for Expression of PD-1 of transferred CD45.1⁺ OT-II Th9 cells in spleen: Supplemental Figure 4J; for Expression of PD-1 of endogenous CD8⁺ T cells in spleen: Supplemental Figure 4K; for Expression of PD-1 of endogenous CD4⁺ T cells in spleen: Supplemental Figure 4L
Description: C57BL/6 mice were subcutaneously injected with 5 × 10^5 B16-OVA melanoma cells. Five days after tumor implantation, mice received an intravenous infusion of 2 × 10^6 in vitro–differentiated Th9 cells (cultured for 5 days), which were derived from OT-II CD45.1 donor mice, accompanied by 4 × 10^5 OVA peptide–pulsed DCs via the tail vein. To enhance T cell engraftment and facilitate lymphodepletion, a single intraperitoneal injection of cyclophosphamide (200 mg/kg, Sigma, catalog C0768) was administered 1 day prior to T cell transfer. Mice were euthanized at designated time points for the collection and analysis of spleens, tumor-draining lymph nodes, and tumor tissues.
Details regarding staining panels (human and mouse), reagents (including clones and catalog numbers), acquisition settings, compensation/controls, and analysis procedures are provided in Supplemental Methods.
CD45.1+ T Cells in Tumors
CtrlEpA Ctrl EpA GzmB Ctrl EpA
CtrlEpA CtrlEpA GzmB Ctrl EpA
J CD45.1+ T Cells in Spleens K CD8+ T Cells in Spleens L CD4+ T Cells in Spleens […]
PD-1 0 CtrlEpA PD-1 0 CtrlEpA PD-1 0 CtrlEpA […]
cells and endogenous T cells.
(A–C) Mean fluorescence intensity (MFI) of IFN-γ (A) and TNF-α (B), and representative flow-cytometric plots with quantification of Granzyme B⁺ Perforin⁺ cells (C) among adoptively transferred CD45.1⁺ Th9 cells in tumors. (D–F) MFI of IFN-γ (D) and TNF-α (E), and representative plots with quantification of Granzyme B⁺ Perforin⁺ cells (F) among tumor-infiltrating CD8⁺ T cells. (G–I) MFI of IFN-γ (G) and TNF-α (H), and representative plots with quantification of Granzyme B⁺ Perforin⁺ cells (I) among tumor-infiltrating CD4⁺ T cells. (J–L) PD-1 expression in adoptively transferred CD45.1⁺ Th9 cells (J), endogenous CD8⁺ T cells (K), and endogenous CD4⁺ T cells (L) from spleens of tumor-bearing mice. Data in (A–L) are shown as mean ± SEM from n = 4 mice per group. Statistical analysis was performed using two-tailed unpaired Student’s t-test (A–L). ns, not significant. *p < 0.05, **p […]
(also on this page, place not known: IFN -γ MFIofTNF-α CtrlEpACtrlEpA MFIofIFN-γ 1500MFIofTNF-α MFIofIFN-γ 800MFIofTNF-α CtrlEpA0 CtrlEpA0 CtrlEpA0 MFI of (×103Ď CtrlEpA0 MFI of PD-1 (×103) MFI of PD-1 (×103) CtrlEpAPD-1 HG FE GzmB+ PRF1+ of CD45.1+ cells (%) GzmB+ PRF1+ of CD8+ cells (%) GzmB+ PRF1+ of CD4+ cells (%) PRF1 PRF1 PRF1 0.3887.5 MFIofIFN-γ) […]

## anteiso-C15 Leu7 surfactin [EpA]
[1]; replicate 1
  mitochondrial mass using Mito Tracker in human Th9 CAR-T cells: 3352
[1]; replicate 2
  mitochondrial mass using Mito Tracker in human Th9 CAR-T cells: 3381
[1]; replicate 3
  mitochondrial mass using Mito Tracker in human Th9 CAR-T cells: 3457
[1]; result in words
  mitochondrial potential, Th9 CAR T: elevated
[2]
  IL9, IRF4, SPI1 mRNA: upregulated
[3]; donor Th9 and endogenous T cells, result in words
  PD-1 expression: comparable between groups
[3]; replicate 1
  Expression of PD-1 of transferred CD45.1⁺ OT-II Th9 cells in spleen: 5868
  Expression of PD-1 of endogenous CD8⁺ T cells in spleen: 1931
  Expression of PD-1 of endogenous CD4⁺ T cells in spleen: 6299
[3]; replicate 2
  Expression of PD-1 of transferred CD45.1⁺ OT-II Th9 cells in spleen: 7923
  Expression of PD-1 of endogenous CD8⁺ T cells in spleen: 1939
  Expression of PD-1 of endogenous CD4⁺ T cells in spleen: 5672
[3]; replicate 3
  Expression of PD-1 of transferred CD45.1⁺ OT-II Th9 cells in spleen: 10955
  Expression of PD-1 of endogenous CD8⁺ T cells in spleen: 2374
  Expression of PD-1 of endogenous CD4⁺ T cells in spleen: 6004
[3]; replicate 4
  Expression of PD-1 of transferred CD45.1⁺ OT-II Th9 cells in spleen: 4100
  Expression of PD-1 of endogenous CD8⁺ T cells in spleen: 1655
  Expression of PD-1 of endogenous CD4⁺ T cells in spleen: 4982
